# In patent US6528041B2, “Process for the preparation of 1-Propyl-2, 4, 5-trimethoxybenzene from toxic β-asarone of acorus calamus or from crude calamus oil containing β-asarone” (Council of Scientific and Industrial Research, priority 2000, dated 2003):
# Assays:
# rats = settings: cited from earlier work
# albino mice = test: acute toxicity test for maximum tolerance dose (MTD) as a single dose; assay type: in vivo; settings: for maximum tolerant doses (MTD): albino mice (25±2 g), intraperitoneal single dose, observed for 24 hr
# Text: There has been a lot of research on the effect of the substituents and functional groups which make a substance toxic or eliminate the toxicity. Any chemical substance that is electrophilic or metabolized to electrophilic species are often quite toxic, because electrophilic substances can react covalently with nucleophilic substituents of cellular macromolecules such as DNA, RNA, enzymes and proteins. These irreversible covalent interactions with important cellular macromolecules interfere with the macromolecule's function and can lead to a variety of toxic effects including cancer, hepatotoxicity, reproductive toxicity and developmental toxicity. It has been realised that the side chain of β-asarone contains carbon-carbon double bond, which can be metabolized to epoxide. The epoxide so formed is highly electrophilic and is capable of interacting with biological tissues, and could therefore, be the reason for the toxicity of β-asarone. In view of the above fact, it was possible to reduce the toxicity of β-asarone by hydrogenating the side olefinic bond into 1-propyl-2,4,5-trimethoxybenzene having a single bond as a side chain. The toxicity of the reduced calamus oil as well as of 1-Propyl-2,4,5-trimethoxy-benzene was tested. Toxicity test was performed on albino mice (body weight 25±2 g). […] Where the initial pilot dose was lethal, the sample was diluted. This was the acute toxicity test for maximum tolerance dose (MTD) as a single dose. […] It must be noted that further reduction in toxicity is possible by further dilution as the odor intensity of 1-Propyl-2,4,5-trimethoxybenzene and reduced calamus oil is substantially stronger than both β-asarone and calamus oil.
# animals = settings: cited from earlier work
# human lymphocytes = human lymphocytes in-vitro after metabolic activation; cited from earlier work
# [1] = tested on: [3H] raclopride binding sites; settings: in vitro; cited from earlier work
# [2] = tested on: [3H] spiperone binding sites; settings: in vitro; cited from earlier work
smiles,measurement,setting,value
C/C=C/c1cc(OC)c(OC)cc1OC [α-Asarone],lethality,rats,fatal
"CCCc1cc(OC)c(OC)cc1OC [1-Propyl-2,4,5-trimethoxybenzene]",toxicity relative to the unreduced starting material (times less toxic),"albino mice; 1-Propyl-2,4,5-trimethoxybenzene vs β-asarone, reduced calamus oil vs calamus oil, from MTD in albino mice",nearly five times and five
same,maximum tolerant doses (MTD),albino mice,0.56 ml/kg b.w.
"C/C=C\c1cc(OC)c(OC)cc1OC [β-asarone, cis-2,4,5-trimethoxy-1-propenylbenzene]",maximum tolerant doses (MTD),albino mice,0.12 ml/kg b.w.
same,tumour induction,animals; after oral administration,induce tumours in the duodenal region
same,carcinogenicity,"animals; animals, higher percentage of β-asarone",carcinogenic
same,chromosome damaging effect,human lymphocytes,chromosome damaging effect
"CCCc1cc(OC)c(OC)c(C(=O)NCC2CCCN2CC)c1O (stereo not drawn) [salicylamide derivative, 5,6-dimethoxy-N[(1-ethyl-2-pyrrolidinyl)methyl]-3-propylsalicylamide]",affinity for [3H] raclopride binding sites,[1],high and stereoselective affinity
same,affinity for [3H] spiperone binding sites,[2],high and stereoselective affinity
